# From US20080207667A1 (priority 2007, published 2008)
# Legend:
# [1] = test system: asthmatic; assay: Spirometry pre and post treatment with nebulized nalbuphine (Example 2); assay type: in vivo, human
# Method: In this example, an asthmatic taking advair diskus for treatment of asthma was treated with nalbuphine according to the present method. Spirometry measurements were taken pre and post treatment with nebulized nalbuphine.
# [2] = test system: smoker; assay: Spirometry pre and post treatment with nebulized nalbuphine (Example 3); assay type: in vivo, human
# Text: Spirometry measurements were taken pre and post treatment with nebulized nalbuphine.
# [3] = test system: subject suffering from a respiratory disorder (former smoker); assay: Spirometry pre and post treatment with nebulized nalbuphine (Example 1); assay type: in vivo, human; details: for FEF (25–75%) % of Prediction / FEF (25–75%) (L/S) Actual / FEV1 % of Prediction / FEV1 (L) Actual / FEV1/FVC % of Prediction / FEV1/FVC (%) Actual / FVC % of Prediction / FVC (L) Actual / PEF % of Prediction / PEF (L/S) Actual / FEF (25–75%) % Change / FEV1 % Change / FEV1/FVC % Change / FVC % Change / PEF % Change: post nebulized nalbuphine
# Text: This example illustrates the use of nalbuphine to treat a subject suffering from a respiratory disorder. The subject was a former smoker. Spirometry measurements were taken pre and post treatment with nebulized nalbuphine.
# [4] = nalbuphine and its salts; cited from earlier work
# [5] = asthmatic taking advair diskus, post nebulized nalbuphine
# [6] = post nebulized nalbuphine vs pre-nalbuphine
# [7] = smoker treated with combivent and spiriva, post nebulized nalbuphine
# [8] = Treatment #1, vs pre-nalbuphine
# [9] = Treatment #1, vs pre-nalbuphine, listed as nalbuphine
# [10] = Treatment #2, vs pre-nalbuphine
# [11] = Treatment #3, vs pre-nalbuphine
compound,measurement,setting,value
"Oc1ccc2c3c1O[C@H]1[C@@H](O)CC[C@@]4(O)[C@@H](C2)N(CC2CCC2)CC[C@]314 [Nalbuphine, nalbuphine]",FEV1 % of Prediction,[1]; [5],35%
same,FEV1 (L) Actual,[1]; [5],0.555 L
same,FVC % of Prediction,[1]; [5],54%
same,FVC (L) Actual,[1]; [5],1.155 L
same,FEV1 % Change,[1]; [6],48%
same,FVC % Change,[1]; [6],35%
same,FVC and FEV1 after treatment,[1]; summary in words,dramatic increase in FVC and FEV1
same,FEV1 % Change,[2]; [6],39%
same,FVC % Change,[2]; [6],34%
same,FEV1 % of Prediction,[2]; [7],84%
same,FEV1 (L) Actual,[2]; [7],2.745 L
same,FVC % of Prediction,[2]; [7],78%
same,FVC (L) Actual,[2]; [7],3.285 L
same,lung capacity and airflow after treatment,[2]; summary in words,marked improvement in lung capacity and airflow
same,FEF (25–75%) % of Prediction,[3]; Treatment #1,130%
same,FEF (25–75%) (L/S) Actual,[3]; Treatment #1,5.043 L/S
same,FEV1 % of Prediction,[3]; Treatment #1,139%
same,FEV1 (L) Actual,[3]; Treatment #1,4.223 L
same,FEV1/FVC % of Prediction,[3]; Treatment #1,106%
same,FEV1/FVC (%) Actual,[3]; Treatment #1,84%
same,FVC % of Prediction,[3]; Treatment #1,133%
same,FVC (L) Actual,[3]; Treatment #1,5.035 L
same,PEF % of Prediction,[3]; Treatment #1,93%
same,PEF (L/S) Actual,[3]; Treatment #1,5.98 L/S
same,FEF (25–75%) % Change,[3]; [8],37.50%
same,FEV1 % Change,[3]; [8],46%
same,FEV1/FVC % Change,[3]; [8],2%
same,FVC % Change,[3]; [8],44.0%
same,PEF % Change,[3]; [8],−6.4%
same,FEV1 % Change,[3]; [9],forty six
same,FVC % Change,[3]; [9],forty-four
same,FEF (25–75%) % of Prediction,[3]; Treatment #2,137%
same,FEF (25–75%) (L/S) Actual,[3]; Treatment #2,5.327 L/S
same,FEV1 % of Prediction,[3]; Treatment #2,134%
same,FEV1 (L) Actual,[3]; Treatment #2,4.259 L
same,FEV1/FVC % of Prediction,[3]; Treatment #2,107%
same,FEV1/FVC (%) Actual,[3]; Treatment #2,84%
same,FVC % of Prediction,[3]; Treatment #2,127%
same,FVC (L) Actual,[3]; Treatment #2,4.827 L
same,PEF % of Prediction,[3]; Treatment #2,113%
same,PEF (L/S) Actual,[3]; Treatment #2,7.297 L/S
same,FEF (25–75%) % Change,[3]; [10],45%
same,FEV1 % Change,[3]; [10],40%
same,FEV1/FVC % Change,[3]; [10],2%
same,FVC % Change,[3]; [10],38%
same,PEF % Change,[3]; [10],14%
same,FEF (25–75%) % of Prediction,[3]; Treatment #3,129%
same,FEF (25–75%) (L/S) Actual,[3]; Treatment #3,4.998 L/S
same,FEV1 % of Prediction,[3]; Treatment #3,136%
same,FEV1 (L) Actual,[3]; Treatment #3,4.11 L
same,FEV1/FVC % of Prediction,[3]; Treatment #3,110%
same,FEV1/FVC (%) Actual,[3]; Treatment #3,87%
same,FVC % of Prediction,[3]; Treatment #3,125%
same,FVC (L) Actual,[3]; Treatment #3,4.733 L
same,PEF % of Prediction,[3]; Treatment #3,112%
same,PEF (L/S) Actual,[3]; Treatment #3,7.225 L/S
same,FEF (25–75%) % Change,[3]; [11],36%
same,FEV1 % Change,[3]; [11],42%
same,FEV1/FVC % Change,[3]; [11],6%
same,FVC % Change,[3]; [11],35%
same,PEF % Change,[3]; [11],13%
same,lung capacity and airflow after treatment,[3]; summary in words,marked improvement in lung capacity and airflow
same,solubility in water,[4],sparingly soluble in water
